Measurements reported in patent US11485742B2, “2-azaspiro[3.4]octane derivatives as M4 agonists” (NOVARTIS AG, priority 2019, dated 2022).

Assays:
[1] = molecular target: T1, human cloned CHRM2 receptor (Homo sapiens, UniProt P08172); experiment: CHRM2 Ca++ Flux Assay (M2_CHO cells, agonist mode); format: cell-based; details: M2 CHO cells; for EC50: agonist mode, geometric mean if tested more than once, read-out: M2 FDSS EC50; for Emax: Percent Activity (PA) measured to EC100 of Carbachol, read-out: M2 FDSS PA %
T1 construct: expressed in transfected cells; host or cells: CHO-K1 (M2_CHO)
T1 sequence (P08172 1-466): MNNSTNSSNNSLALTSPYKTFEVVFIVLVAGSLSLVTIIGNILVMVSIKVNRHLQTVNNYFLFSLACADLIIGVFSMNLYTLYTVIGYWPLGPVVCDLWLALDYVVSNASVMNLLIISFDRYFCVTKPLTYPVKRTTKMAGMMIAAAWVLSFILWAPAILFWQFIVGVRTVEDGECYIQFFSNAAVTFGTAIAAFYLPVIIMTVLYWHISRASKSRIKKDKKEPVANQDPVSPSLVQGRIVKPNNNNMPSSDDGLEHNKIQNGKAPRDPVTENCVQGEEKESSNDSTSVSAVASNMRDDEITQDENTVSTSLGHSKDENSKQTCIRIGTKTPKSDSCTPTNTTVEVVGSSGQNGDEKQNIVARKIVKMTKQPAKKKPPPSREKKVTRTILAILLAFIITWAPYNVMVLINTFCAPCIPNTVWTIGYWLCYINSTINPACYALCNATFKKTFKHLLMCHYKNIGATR
Method in brief: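 CHO-K1 cells stably expressing human CHRM2 were plated overnight at 12K cells/well and loaded with Ca++ dye for 1–2 h. They were then held 60 minutes in HBSS −Ca/−Mg, 20 mM HEPES, 2.5 mM probenecid, 20 μM ATP. Agonist-mode Ca++ flux was read over 3 minutes. Four-parameter fits of triplicates gave percent activity relative to carbachol EC100.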

[2] = molecular target: T2, human cloned CHRM5 receptor (Homo sapiens, UniProt P08912); experiment: CHRM5 Ca++ Flux Assay (M5_CHO cells, agonist mode); format: cell-based; details: for Emax: Percent Activity (PA) measured to EC100 of Carbachol, read-out: M5 FDSS PA %; for EC50: agonist mode, geometric mean if tested more than once, read-out: M5 FDSS EC50
T2 construct: expressed in transfected cells; host or cells: CHO (M5_CHO)
T2 sequence (P08912 1-532): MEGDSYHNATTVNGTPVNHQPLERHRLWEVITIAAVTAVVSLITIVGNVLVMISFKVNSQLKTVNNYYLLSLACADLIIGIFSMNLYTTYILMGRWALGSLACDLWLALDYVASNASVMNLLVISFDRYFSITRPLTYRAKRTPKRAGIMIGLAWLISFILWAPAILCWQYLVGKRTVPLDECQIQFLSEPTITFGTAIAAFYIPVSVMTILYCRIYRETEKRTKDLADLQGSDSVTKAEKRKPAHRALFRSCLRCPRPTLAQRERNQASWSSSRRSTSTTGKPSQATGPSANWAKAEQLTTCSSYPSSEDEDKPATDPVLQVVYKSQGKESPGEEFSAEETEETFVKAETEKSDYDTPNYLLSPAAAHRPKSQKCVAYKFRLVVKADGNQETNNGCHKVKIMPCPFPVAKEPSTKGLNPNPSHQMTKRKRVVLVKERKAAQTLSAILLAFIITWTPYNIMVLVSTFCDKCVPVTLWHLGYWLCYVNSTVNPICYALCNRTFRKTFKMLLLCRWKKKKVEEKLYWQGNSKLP
Method in brief: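 CHO-K1 cells stably expressing human M3 or M5 receptor, dye-loaded ≥1 h, treated with 11-point compound doses in triplicate; Ca++ flux read over 3 min (FDSS). Agonist-mode four-parameter fit; percent activity relative to carbachol EC100; repeat tests reported as geometric mean.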

## Fc1cc(OC2COC2)c(C2CCN([C@@H]3COC4(C3)CN(c3ncco3)C4)CC2)cc1F [Example 4Q, (S)-7-(4-(4,5-difluoro-2-(oxetan-3-yloxy)phenyl)piperidin-1-yl)-2-(oxazol-2-yl)-5-oxa-2-azaspiro[3.4]octane]
[1]
  EC50: 1880 nM
  Emax: 13%
[2]
  Emax: 0%
  EC50: > 25 µM

## COC(C)(C)CCOc1ccc(F)cc1C1CCN([C@@H]2COC3(C2)CN(c2nncs2)C3)CC1 [Example 5N, (S)-7-(4-(5-fluoro-2-(3-methoxy-3-methylbutoxy)phenyl)piperidin-1-yl)-2-(1,3,4-thiadiazol-2-yl)-5-oxa-2-azaspiro[3.4]octane]
[1]
  EC50: > 25000 nM
  Emax: 38%
[2]
  Emax: 21%
  EC50: 12.4 µM
